According to the NIST ThermoML archive (doi:10.1016/j.jct.2018.12.018):
Several values for one entry are separate records, joined by “and”; a condition that tells them apart may be missing. Equal entries are not always repeated.

Test: xn = mol fraction of the nth substance listed
Conditions: Liquid, x1 = 0.617; for speed of sound: Frequency=3 MHz, Single path-length method; for mass density: Vibrating tube method

CCOC(F)(F)C(F)(C(F)(F)F)C(F)(F)F [nonafluoroisobutyl ethyl ether] + CCOC(F)(F)C(F)(F)C(F)(F)C(F)(F)F
Conditions	mass density	speed of sound [m/s]
293.15 K, 100 kPa	1433.9 kg/m3 and 1434.27 kg/m3	637.83
293.15 K, 1000 kPa	1436.6 kg/m3	–
293.15 K, 5000 kPa	1448.2 kg/m3	–
293.15 K, 10000 kPa	1461.3 kg/m3	–
293.15 K, 15000 kPa	1473.4 kg/m3	–
293.15 K, 20000 kPa	1484.5 kg/m3	–
293.15 K, 25000 kPa	1494.8 kg/m3	–
293.15 K, 30000 kPa	1504.7 kg/m3	–
293.15 K, 35000 kPa	1513.9 kg/m3	–
293.15 K, 40000 kPa	1522.5 kg/m3	–
293.15 K, 45000 kPa	1530.8 kg/m3	–
293.15 K, 50000 kPa	1538.7 kg/m3	–
293.15 K, 55000 kPa	1546.3 kg/m3	–
293.15 K, 60000 kPa	1553.5 kg/m3	–
293.15 K, 65000 kPa	1560.5 kg/m3	–
293.15 K, 70000 kPa	1567.2 kg/m3	–
293.15 K, 80000 kPa	1580 kg/m3	–
293.15 K, 90000 kPa	1591.9 kg/m3	–
293.15 K, 100000 kPa	1603.1 kg/m3	–
293.15 K, 110000 kPa	1613.9 kg/m3	–
293.15 K, 120000 kPa	1624 kg/m3	–
293.15 K, 130000 kPa	1633.7 kg/m3	–
293.15 K, 140000 kPa	1642.8 kg/m3	–
298.15 K, 100 kPa	1423.06 kg/m3 and 1422.8 kg/m3	622.13
298.15 K, 1000 kPa	1425.6 kg/m3	–
298.15 K, 5000 kPa	1437.7 kg/m3	–
298.15 K, 10000 kPa	1451.5 kg/m3	–
298.15 K, 15000 kPa	1463.9 kg/m3	–
298.15 K, 20000 kPa	1475.4 kg/m3	–
298.15 K, 25000 kPa	1486.2 kg/m3	–
298.15 K, 30000 kPa	1496.1 kg/m3	–
298.15 K, 35000 kPa	1505.7 kg/m3	–
298.15 K, 40000 kPa	1514.5 kg/m3	–
298.15 K, 45000 kPa	1523 kg/m3	–
298.15 K, 50000 kPa	1531.1 kg/m3	–
298.15 K, 55000 kPa	1538.8 kg/m3	–
298.15 K, 60000 kPa	1546.3 kg/m3	–
298.15 K, 65000 kPa	1553.4 kg/m3	–
298.15 K, 70000 kPa	1560.2 kg/m3	–
298.15 K, 80000 kPa	1573.2 kg/m3	–
298.15 K, 90000 kPa	1585.4 kg/m3	–
298.15 K, 100000 kPa	1596.9 kg/m3	–
298.15 K, 110000 kPa	1607.6 kg/m3	–
298.15 K, 120000 kPa	1618 kg/m3	–
298.15 K, 130000 kPa	1627.8 kg/m3	–
298.15 K, 140000 kPa	1637.2 kg/m3	–
303.15 K, 100 kPa	1411.62 kg/m3	606.46
313.15 K, 100 kPa	1388.53 kg/m3 and 1388.4 kg/m3	575.75
313.15 K, 1000 kPa	1391.8 kg/m3	–
313.15 K, 5000 kPa	1405.6 kg/m3	–
313.15 K, 10000 kPa	1421.1 kg/m3	–
313.15 K, 15000 kPa	1435.1 kg/m3	–
313.15 K, 20000 kPa	1447.8 kg/m3	–
313.15 K, 25000 kPa	1459.5 kg/m3	–
313.15 K, 30000 kPa	1470.6 kg/m3	–
313.15 K, 35000 kPa	1480.8 kg/m3	–
313.15 K, 40000 kPa	1490.3 kg/m3	–
313.15 K, 45000 kPa	1499.5 kg/m3	–
313.15 K, 50000 kPa	1508.1 kg/m3	–
313.15 K, 55000 kPa	1516.4 kg/m3	–
313.15 K, 60000 kPa	1524.3 kg/m3	–
313.15 K, 65000 kPa	1531.9 kg/m3	–
313.15 K, 70000 kPa	1539.2 kg/m3	–
313.15 K, 80000 kPa	1552.9 kg/m3	–
313.15 K, 90000 kPa	1565.7 kg/m3	–
313.15 K, 100000 kPa	1577.6 kg/m3	–
313.15 K, 110000 kPa	1589 kg/m3	–
313.15 K, 120000 kPa	1599.7 kg/m3	–
313.15 K, 130000 kPa	1610 kg/m3	–
313.15 K, 140000 kPa	1619.7 kg/m3	–
323.15 K, 100 kPa	1365.15 kg/m3	545.46
333.15 K, 100 kPa	1341.02 kg/m3 and 1340.7 kg/m3	515.64
333.15 K, 1000 kPa	1344.8 kg/m3	–
333.15 K, 5000 kPa	1361.6 kg/m3	–
333.15 K, 10000 kPa	1380.1 kg/m3	–
333.15 K, 15000 kPa	1396.3 kg/m3	–
333.15 K, 20000 kPa	1410.8 kg/m3	–
333.15 K, 25000 kPa	1424.2 kg/m3	–
333.15 K, 30000 kPa	1436.4 kg/m3	–
333.15 K, 35000 kPa	1447.8 kg/m3	–
333.15 K, 40000 kPa	1458.5 kg/m3	–
333.15 K, 45000 kPa	1468.6 kg/m3	–
333.15 K, 50000 kPa	1478 kg/m3	–
333.15 K, 55000 kPa	1487 kg/m3	–
333.15 K, 60000 kPa	1495.5 kg/m3	–
333.15 K, 65000 kPa	1503.7 kg/m3	–
333.15 K, 70000 kPa	1511.5 kg/m3	–
333.15 K, 80000 kPa	1526.3 kg/m3	–
333.15 K, 90000 kPa	1540 kg/m3	–
333.15 K, 100000 kPa	1552.7 kg/m3	–
333.15 K, 110000 kPa	1564.7 kg/m3	–
333.15 K, 120000 kPa	1576 kg/m3	–
333.15 K, 130000 kPa	1586.8 kg/m3	–
333.15 K, 140000 kPa	1597.2 kg/m3	–
353.15 K, 1000 kPa	1295.2 kg/m3	–
353.15 K, 5000 kPa	1316.1 kg/m3	–
353.15 K, 10000 kPa	1338.1 kg/m3	–
353.15 K, 15000 kPa	1357.1 kg/m3	–
353.15 K, 20000 kPa	1373.9 kg/m3	–
353.15 K, 25000 kPa	1388.9 kg/m3	–
353.15 K, 30000 kPa	1402.6 kg/m3	–
353.15 K, 35000 kPa	1415.3 kg/m3	–
353.15 K, 40000 kPa	1426.8 kg/m3	–
353.15 K, 45000 kPa	1437.9 kg/m3	–
353.15 K, 50000 kPa	1448.2 kg/m3	–
353.15 K, 55000 kPa	1457.9 kg/m3	–
353.15 K, 60000 kPa	1467.2 kg/m3	–
353.15 K, 65000 kPa	1475.9 kg/m3	–
353.15 K, 70000 kPa	1484.5 kg/m3	–
353.15 K, 80000 kPa	1500.2 kg/m3	–
353.15 K, 90000 kPa	1514.8 kg/m3	–
353.15 K, 100000 kPa	1528.3 kg/m3	–
353.15 K, 110000 kPa	1541.1 kg/m3	–
353.15 K, 120000 kPa	1553 kg/m3	–
353.15 K, 130000 kPa	1564.3 kg/m3	–
353.15 K, 140000 kPa	1575.1 kg/m3	–
373.15 K, 1000 kPa	1242.1 kg/m3	–
373.15 K, 5000 kPa	1268.4 kg/m3	–
373.15 K, 10000 kPa	1295.1 kg/m3	–
373.15 K, 15000 kPa	1317.3 kg/m3	–
373.15 K, 20000 kPa	1336.2 kg/m3	–
373.15 K, 25000 kPa	1353.3 kg/m3	–
373.15 K, 30000 kPa	1368.8 kg/m3	–
373.15 K, 35000 kPa	1382.9 kg/m3	–
373.15 K, 40000 kPa	1395.6 kg/m3	–
373.15 K, 45000 kPa	1407.7 kg/m3	–
373.15 K, 50000 kPa	1418.8 kg/m3	–
373.15 K, 55000 kPa	1429.4 kg/m3	–
373.15 K, 60000 kPa	1439.5 kg/m3	–
373.15 K, 65000 kPa	1448.9 kg/m3	–
373.15 K, 70000 kPa	1457.9 kg/m3	–
373.15 K, 80000 kPa	1474.7 kg/m3	–
373.15 K, 90000 kPa	1490.2 kg/m3	–
373.15 K, 100000 kPa	1504.5 kg/m3	–
373.15 K, 110000 kPa	1517.9 kg/m3	–
373.15 K, 120000 kPa	1530.5 kg/m3	–
373.15 K, 130000 kPa	1542.3 kg/m3	–
373.15 K, 140000 kPa	1553.7 kg/m3	–
393.15 K, 1000 kPa	1183.9 kg/m3	–
393.15 K, 5000 kPa	1218.3 kg/m3	–
393.15 K, 10000 kPa	1250.8 kg/m3	–
393.15 K, 15000 kPa	1277 kg/m3	–
393.15 K, 20000 kPa	1299.1 kg/m3	–
393.15 K, 25000 kPa	1318.3 kg/m3	–
393.15 K, 30000 kPa	1335.4 kg/m3	–
393.15 K, 35000 kPa	1350.9 kg/m3	–
393.15 K, 40000 kPa	1365.1 kg/m3	–
393.15 K, 45000 kPa	1378.1 kg/m3	–
393.15 K, 50000 kPa	1390.2 kg/m3	–
393.15 K, 55000 kPa	1401.6 kg/m3	–
393.15 K, 60000 kPa	1412.4 kg/m3	–
393.15 K, 65000 kPa	1422.5 kg/m3	–
393.15 K, 70000 kPa	1432.1 kg/m3	–
393.15 K, 80000 kPa	1450 kg/m3	–
393.15 K, 90000 kPa	1466.2 kg/m3	–
393.15 K, 100000 kPa	1481.5 kg/m3	–
393.15 K, 110000 kPa	1495.5 kg/m3	–
393.15 K, 120000 kPa	1508.7 kg/m3	–
393.15 K, 130000 kPa	1521.1 kg/m3	–
393.15 K, 140000 kPa	1532.1 kg/m3	–
